Peptide text beside a SMILES is read from it. * marks the point of attachment. NH(4-MeO-2-naphthyl) = COc1cc(N*)cc2ccccc12; βNA = c1ccc2cc(N*)ccc2c1; Cbz = O=C(OCc1ccccc1)*; Bz = O=C(c1ccccc1)*
Legend:
trichomonal hydrolases [1] = experiment: Experiment 13: hydrolysis of peptide substrates by trichomonal hydrolases at low pH, no vaginal fluid; format: biochemical, Trichomonas vaginalis; design: key: −: No red color produced; +: Clearly visible red color produced; ++: Moderately intense red color produced; +++: Very intense red color produced; conditions: without vaginal fluid; threonine buffer pH 2.4; 2 mM substrate solution; 10 min 25° C.; Fast Garnet
Method: Forty μL of each substrate was pipetted into duplicate wells of a microtiter plate. The plate was covered with tape, placed into a 25° C. incubator, and allowed to warm. A diluted enzyme mixture was prepared by mixing one part (v/v) freshly-thawed trichomonal hydrolase solution to nine parts 2 mM L-cysteine solution. Forty μL of this mixture was added to one well of each pair of duplicate wells. For negative controls, 40 μL of 2 mM L-cysteine was added to the second well in each pair of duplicate wells. The plate was returned to the incubator and incubated for ten minutes. Forty μL of SDS/acetate solution was added to each well, followed by 40 μL of Fast Garnet solution. The intensity of color that developed in each well after five minutes was visually scored using the color scale presented in Table 13.1.

trichomonal hydrolases [2] = experiment: Experiment 12: hydrolysis of ZRRR-MNA by trichomonal hydrolases in four buffers; format: biochemical, Trichomonas vaginalis; conditions: for Score: substrate ZRRR-MNA, Fast Red RL, 0-9 scale
Method: Fifty μL of each buffer solution, at pH 2.0, 2.2, 2.4, or 2.6, was pipetted into separate wells of a microtiter plate. Twenty-five μL of 8 mM ZRRR-MNA and 25 μL of 10% trichomonal hydrolase solution were added to each well, and 20 μL were then removed from each well for measurement of final pH. Ten minutes after the mixtures were made, a Dacron swab was inserted into each well to absorb the liquid, then each swab was rubbed on a Fast Red RL film. The intensity of pink color that developed on each swab after five minutes was visually scored in 0.5 unit increments using the 0-9 color scale presented in Table 11.1 of the preceding example.

[3] = pH 2.0 Buffer after mixing with substrate and trichomonal hydrolase solution
[4] = pH 2.2 Buffer after mixing with substrate and trichomonal hydrolase solution
[5] = pH 2.4 Buffer after mixing with substrate and trichomonal hydrolase solution
[6] = pH 2.6 Buffer after mixing with substrate and trichomonal hydrolase solution

Molecule | Color Score (trichomonal hydrolases [1]) | further results
CC[C@H](C)[C@H](N)C(=O)Nc1ccc2ccccc2c1 [Ile-βNA] | − | 
NCC(=O)N[C@@H](Cc1ccccc1)C(=O)Nc1ccc2ccccc2c1 [Gly-Phe-βNA] (H-Gly-Phe-βNA) | − | 
COc1cc(NC(=O)[C@@H](N)Cc2ccccc2)cc2ccccc12 [Phe-MNA] | − | 
NCC(=O)O [Glycine] |  | Score (trichomonal hydrolases [2]; pH 2.0 Buffer (100 mM)): 5.0; Final pH (trichomonal hydrolases [2]; [3]): pH 2.4; Score (trichomonal hydrolases [2]; pH 2.2 Buffer (100 mM)): 6.0; Final pH (trichomonal hydrolases [2]; [4]): pH 2.6; Score (trichomonal hydrolases [2]; pH 2.4 Buffer (100 mM)): 6.0; Final pH (trichomonal hydrolases [2]; [5]): pH 2.7; Score (trichomonal hydrolases [2]; pH 2.6 Buffer (100 mM)): 6.0; Final pH (trichomonal hydrolases [2]; [6]): pH 2.9
N=C(N)NCCC[C@H](NC(=O)[C@@H](N)Cc1ccccc1)C(=O)Nc1ccc2ccccc2c1 [Phe-Arg-βNA] (H-Phe-Arg-βNA) | − | 
CC(C)C[C@H](N)C(=O)N[C@@H](C)C(=O)Nc1ccc2ccccc2c1 [Leu-Ala-βNA] (H-Leu-Ala-βNA) | − | 
COc1cc(NC(=O)C(CO)NC(=O)C(N)Cc2cnc[nH]2)cc2ccccc12 (stereo not drawn) [His-Ser-MNA] | − | 
NCCCC[C@H](N)C(=O)O [L-lysine] |  | Score (trichomonal hydrolases [2]; pH 2.0 Buffer (100 mM)): 3.0; Final pH (trichomonal hydrolases [2]; [3]): pH 2.3; Score (trichomonal hydrolases [2]; pH 2.2 Buffer (100 mM)): 4.5; Final pH (trichomonal hydrolases [2]; [4]): pH 2.5; Score (trichomonal hydrolases [2]; pH 2.4 Buffer (100 mM)): 5.0; Final pH (trichomonal hydrolases [2]; [5]): pH 2.9; Score (trichomonal hydrolases [2]; pH 2.6 Buffer (100 mM)): 5.5; Final pH (trichomonal hydrolases [2]; [6]): pH 3.0
N=C(N)NCCC[C@H](NC(=O)[C@@H](N)CCCNC(=N)N)C(=O)Nc1ccc2ccccc2c1 [Arg-Arg-βNA] (H-Arg-Arg-βNA) | − | 
NCC(=O)N[C@@H](CCCN=C(N)N)C(=O)Nc1ccc2ccccc2c1 [Gly-Arg-βNA] (H-Gly-Arg-βNA) | − | 
N=C(N)NCCC[C@H](NC(=O)[C@H](Cc1ccccc1)NC(=O)[C@@H]1CCCN1C(=O)c1ccccc1)C(=O)Nc1ccc2ccccc2c1 [BZ-Pro-Phe-Arg-βNA] (Bz-Pro-Phe-Arg-βNA) | − | 
COc1cc(NC(=O)C(N)CC(C)C)cc2ccccc12.Cl (centres unmarked) [Leu-MNA] | − | 
COc1cc(NC(=O)[C@H](CCCN=C(N)N)NC(=O)[C@H](CCCCN)NC(=O)[C@H](CCCCN)NC(=O)[C@@H](NC(=O)OCc2ccccc2)C(C)C)cc2ccccc12 [CBZ-Val-Lys-Lys-Arg-MNA] (Cbz-VKKR-{NH(4-MeO-2-naphthyl)}) | + | 
CSCC[C@H](NC(=O)[C@@H](N)CO)C(=O)Nc1ccc2ccccc2c1 [Ser-Met-βNA] (H-Ser-Met-βNA) | − | 
NCCCC[C@H](NC(=O)OCc1ccccc1)C(=O)Nc1ccc2ccccc2c1 [CBZ-Lys-βNA] | − | 
N[C@@H](CO)C(=O)N[C@@H](Cc1ccc(O)cc1)C(=O)Nc1ccc2ccccc2c1 [Ser-Tyr-βNA] (H-Ser-Tyr-βNA) | − | 
NCC(=O)Nc1ccc2ccccc2c1 [Gly-βNA] | − | 
COc1cc(NC(=O)[C@@H]2CCCN2C(=O)CN)cc2ccccc12 [Gly-Pro-MNA] | − | 
CBZ-Val-Leu-Arg-MNA | + | 
NCC(=O)N[C@@H](Cc1c[nH]c2ccccc12)C(=O)Nc1ccc2ccccc2c1 [Gly-Trp-βNA] (H-Gly-Trp-βNA) | − | 
NCC(=O)NCC(=O)Nc1ccc2ccccc2c1 [Gly-Gly-βNA] (H-Gly-Gly-βNA) | − | 
COc1cc(NC(=O)C(CCCNC(=N)N)NC(=O)C(C)NC(=O)C(CCC(N)=O)NC(=O)OC(C)(C)C)cc2ccccc12 (stereo not drawn) [BOC-Gln-Ala-Arg-MNA] | − | 
C[C@H](N)C(=O)N[C@@H](C)C(=O)Nc1ccc2ccccc2c1 [Ala-Ala-βNA] (H-Ala-Ala-βNA) | − | 
COc1cc(NC(=O)[C@H](CCCNC(=N)N)NC(=O)[C@H](CCCNC(=N)N)NC(=O)[C@H](CC(C)C)NC(=O)OCc2ccccc2)cc2ccccc12 [CBZ-Leu-Arg-Arg-MNA] | + | 
O=C(Nc1ccc2ccccc2c1)[C@@H]1C[C@@H](O)CN1 [Hyp-βNA] | − | 
COc1cc(NC(=O)[C@H](CCCNC(=N)N)NC(=O)c2ccccc2)cc2ccccc12 [BZ-Arg-MNA] | − | 
COc1cc(NC(=O)C(Cc2ccccc2)NC(=O)CNC(=O)C(N)CCC(N)=O)cc2ccccc12 (stereo not drawn) [Gln-Gly-Phe-MNA] | − | 
COc1cc(NC(=O)C(CC(C)C)NC(=O)C(Cc2ccccc2)NC(=O)CNC(=O)C(CCCNC(=N)N)NC(=O)OCc2ccccc2)cc2ccccc12 (stereo not drawn) [CBZ-Arg-Gly-Phe-Leu-MNA] (Cbz-RGFL-{NH(4-MeO-2-naphthyl)}; configuration not given here) | − | 

Molecule | Color Score (trichomonal hydrolases [1]) | further results
C[C@H](N)C(=O)Nc1ccc2ccccc2c1 [Ala-βNA] | − | 
COc1cc(NC(=O)[C@H](CCCNC(=N)N)NC(=O)CNC(=O)CNC(=O)OCc2ccccc2)cc2ccccc12 [CBZ-Gly-Gly-Arg-MNA] | − | 
CC(C)C[C@H](NC(=O)CNC(=O)CNC(=O)OCc1ccccc1)C(=O)Nc1ccc2ccccc2c1 [CBZ-Gly-Gly-Leu-βNA] (Cbz-Gly-Gly-Leu-βNA) | − | 
Cbz-Arg-Arg-βNA | − | 
COc1cc(NC(=O)[C@H](CCCNC(=N)N)NC(=O)[C@H](CCCCN)NC(=O)[C@H](CCCCN)NC(=O)OCc2ccccc2)cc2ccccc12 [CBZ-Lys-Lys-Arg-MNA] | + | 
O=C(Nc1ccc2ccccc2c1)[C@@H]1CCCN1 [Pro-βNA] | − | 
COc1cc(NC(=O)C(Cc2ccccc2)NC(=O)CN)cc2ccccc12 (stereo not drawn) [Gly-Phe-MNA] | − | 
N[C@@H](CO)C(=O)Nc1ccc2ccccc2c1 [Ser-βNA] | − | 
N[C@@H](Cc1ccccc1)C(=O)Nc1ccc2ccccc2c1 [Phe-βNA] | − | 
C[C@H](NC(=O)[C@@H](N)CCCCN)C(=O)Nc1ccc2ccccc2c1 [Lys-Ala-βNA] (H-Lys-Ala-βNA) | − | 
C[C@@H](O)[C@H](N)C(=O)O [L-threonine] |  | Score (trichomonal hydrolases [2]; pH 2.0 Buffer (100 mM)): 3.5; Final pH (trichomonal hydrolases [2]; [3]): pH 2.3; Score (trichomonal hydrolases [2]; pH 2.2 Buffer (100 mM)): 6.0; Final pH (trichomonal hydrolases [2]; [4]): pH 2.4; Score (trichomonal hydrolases [2]; pH 2.4 Buffer (100 mM)): 6.5; Final pH (trichomonal hydrolases [2]; [5]): pH 2.7; Score (trichomonal hydrolases [2]; pH 2.6 Buffer (100 mM)): 6.0; Final pH (trichomonal hydrolases [2]; [6]): pH 2.9
COc1cc(NC(=O)[C@H](C)NC(=O)[C@H](C)NC(=O)[C@H](CCC(N)=O)NC(=O)OC(C)(C)C)cc2ccccc12 [BOC-Gln-Ala-Ala-MNA] | − | 
O=C(O)CC(O)C(=O)O (racemic) [DL-malic acid] |  | Score (trichomonal hydrolases [2]; pH 2.0 Buffer (100 mM)): 4.5; Final pH (trichomonal hydrolases [2]; [3]): pH 2.4; Score (trichomonal hydrolases [2]; pH 2.2 Buffer (100 mM)): 5.5; Final pH (trichomonal hydrolases [2]; [4]): pH 2.7; Score (trichomonal hydrolases [2]; pH 2.4 Buffer (100 mM)): 6.0; Final pH (trichomonal hydrolases [2]; [5]): pH 2.8; Score (trichomonal hydrolases [2]; pH 2.6 Buffer (100 mM)): 6.0; Final pH (trichomonal hydrolases [2]; [6]): pH 2.9
COc1cc(NC(=O)C(CCCN=C(N)N)NC(=O)C2CCCN2)cc2ccccc12 (stereo not drawn) [Pro-Arg-MNA] | − | 
COc1cc(NC(=O)C(CCCNC(=N)N)NC(=O)C2CCCN2C(=O)CNC(=O)OCc2ccccc2)cc2ccccc12 (stereo not drawn) [CBZ-Gly-Pro-Arg-MNA] | − | 
Pro-MNA | − | 
CC(C)[C@H](N)C(=O)Nc1ccc2ccccc2c1 [Val-βNA] | − | 
COc1cc(NC(=O)C(CCCN=C(N)N)NC(=O)CN)cc2ccccc12 (stereo not drawn) [Gly-Arg-MNA] | − | 
COc1cc(NC(=O)C(CCCNC(=N)N)NC(=O)OCc2ccccc2)cc2ccccc12 (centres unmarked) [CBZ-Arg-MNA] | − | 
NC(N)=NCCC[C@H](N)C(=O)Nc1ccc2ccccc2c1 [Arg-βNA] | − | 
N[C@@H](Cc1c[nH]c2ccccc12)C(=O)Nc1ccc2ccccc2c1 [Trp-βNA] | − | 
CC(C)C[C@H](N)C(=O)Nc1ccc2ccccc2c1 [Leu-βNA] | − | 
O=C(CNC(=O)OCc1ccccc1)NCC(=O)N[C@@H](Cc1ccccc1)C(=O)Nc1ccc2ccccc2c1 [CBZ-Gly-Gly-Phe-βNA] (Cbz-Gly-Gly-Phe-βNA) | − | 
NC(N)=NCCCC(NC(=O)c1ccccc1)C(=O)Nc1ccc2ccccc2c1 (racemic) [BZ-DL-Arg-βNA] | − | 
N[C@@H](Cc1cnc[nH]1)C(=O)Nc1ccc2ccccc2c1 [His-βNA] | − | 
COc1cc(NC(=O)[C@@H](N)CCCN=C(N)N)cc2ccccc12 [Arg-MNA] | − | 
NCCCC[C@H](N)C(=O)Nc1ccc2ccccc2c1 [Lys-βNA] | − | 
